Data published in paper PMC8286840, “Identifying SARS-CoV-2 antiviral compounds by screening for small molecule inhibitors of Nsp3 papain-like protease” (Biochemical Journal, 2021).
Structures can show the parent of a compound that is named as a salt. Where two headings read alike, the source gives them in different places. Where a SMILES comes first, the peptide text is derived from it. [ ]: non-standard residue; d: D form. The star is where a group is joined. Dolaproine = CO[C@@H]([C@@H]1CCCN1)[C@@H](C)C(=O)O; Dil = CC[C@H](C)[C@H](NC)[C@@H](CC(=O)O)OC; NMe2Val = CC(C)[C@@H](C(=O)*)N(C)C

Tests used:
[1] = biological target: T1, SARS-CoV-2 PLpro (nsp3 1564–1878) (Severe acute respiratory syndrome coronavirus 2, UniProt P0DTD1); assay: biochemical; design: FRET-quenched peptide (Pro3) cleavage by PLpro, 10 min pre-incubation, slope over 20 min, normalised to no-compound control; conditions: high concentration screen, read-out: % of control remaining
Description: The plates were organized with columns 3–22 containing the compounds; the remaining columns were used for reaction controls including substrate only and substrate with enzyme but no compound (Figure 3Aii). The PLpro enzyme was pre-incubated with the compounds for 10 min, and then the reaction was initiated by the addition of substrate. […] We incubated the inhibitors with PLpro before the enzymatic reaction so that the slow-binding inhibitors will not be missed out [21]. […] Fluorescence was read on a Spark multimode microplate reader (Tecan) with an excitation wavelength at 330 nm and emission wavelength at 420 nm. […] An amount of 5 µl of the enzyme was pre-incubated with compounds for 10 min before the addition of 15 µl substrate. Fluorescence was monitored at 2 min for 20 min with 3 min intervals giving a total of seven readings.

[2] = biological target: T1, SARS-CoV-2 PLpro (nsp3 1564–1878); assay: biochemical; design: FRET-quenched peptide (Pro3) cleavage by PLpro, 10 min pre-incubation, slope over 20 min, normalised to no-compound control; conditions: low concentration screen, read-out: % of control remaining

FC(F)(F)c1cccc(C2=CCN(CCc3ccc4ccccc4c3)CC2)c1 [Xaliproden hydrochloride]
remaining activity at 3.75 µM ([1]; Well no.=5767): 105%
remaining activity at 1.25 µM ([2]; Well no.=5767): 106%

CC[C@H]1OC(=O)[C@H](C)[C@@H](O[C@H]2C[C@@](C)(OC)[C@@H](O)[C@H](C)O2)[C@H](C)[C@@H](O[C@@H]2O[C@H](C)C[C@H](N(C)C)[C@H]2O)[C@](C)(O)C[C@@H](C)CN(C)[C@H](C)[C@@H](O)[C@]1(C)O [Azithromycin]
remaining activity at 3.75 µM ([1]; Well no.=2167): 102%
remaining activity at 1.25 µM ([2]; Well no.=2167): 97.4%

CCC1(c2cccc(O)c2)CCCCN(C)C1 (stereo not shown) [Meptazinol (hydrochloride)]
remaining activity at 3.75 µM ([1]; Well no.=6511): 98.2%
remaining activity at 1.25 µM ([2]; Well no.=6511): 102%

CN(CCOc1ccc(C[C@H](Nc2ccccc2C(=O)c2ccccc2)C(=O)O)cc1)c1ccccn1 [GW1929]
remaining activity at 3.75 µM ([1]; Well no.=477): 96.6%
remaining activity at 3.75 µM ([1]; Well no.=8120): 94.2%
remaining activity at 1.25 µM ([2]; Well no.=8120): 97.1%

CCCCC1=NC2(CCCC2)C(=O)N1Cc1ccc(-c2ccccc2-c2nnn[nH]2)cc1 [2-butyl-3-{[2'-(1H-tetraazol-5-yl)[1,1'-biphenyl]-4-yl]methyl}-1,3-diazaspiro[4.4]non-1-en-4-one]
remaining activity at 3.75 µM ([1]; Well no.=5468): 104%
remaining activity at 1.25 µM ([2]; Well no.=5468): 98%

O=C(O)[C@H]1O[C@@H](Oc2cc3oc(-c4ccccc4)cc(=O)c3c(O)c2O)[C@H](O)[C@@H](O)[C@@H]1O [Baicalin]
remaining activity at 3.75 µM ([1]; Well no.=5190): 100%
remaining activity at 1.25 µM ([2]; Well no.=5190): 101%

CCCCc1c(-c2ccc(OC)cc2)[nH]c2nccnc12 [Aloisine, RP106]
remaining activity at 3.75 µM ([1]; Well no.=2320): 94.7%
remaining activity at 1.25 µM ([2]; Well no.=2320): 96.9%

O=C(NCCO)c1cc(C(=O)NCCO)cc(C(=O)NCCO)c1 [N~1~,N~3~,N~5~-tris(2-hydroxyethyl)-1,3,5-benzenetricarboxamide]
remaining activity at 3.75 µM ([1]; Well no.=6029): 99.9%
remaining activity at 1.25 µM ([2]; Well no.=6029): 96.8%

O=c1[nH]c2cc(C(F)(F)F)ccc2n1-c1cc(C(F)(F)F)ccc1O [NS-1619]
remaining activity at 3.75 µM ([1]; Well no.=846): 102%
remaining activity at 1.25 µM ([2]; Well no.=846): 104%

CN(C)c1ccc(C(=C2C=CC(=[N+](C)C)C=C2)c2ccc(N(C)C)cc2)cc1 [Crystal violet]
remaining activity at 3.75 µM ([1]; Well no.=5000): 101%
remaining activity at 1.25 µM ([2]; Well no.=5000): 101%

O=C(COc1ccc(C(=O)c2ccccc2)cc1)NC1CCN(Cc2ccccc2)CC1 [AdipoRon]
remaining activity at 3.75 µM ([1]; Well no.=7239): 96.7%
remaining activity at 1.25 µM ([2]; Well no.=7239): 100%

C[C@@]12CCc3occc3[C@H]1CC[C@@]13C[C@@H](CC[C@H]12)[C@@](O)(CO)C3 [Cafestol]
remaining activity at 3.75 µM ([1]; Well no.=3523): 96.8%
remaining activity at 1.25 µM ([2]; Well no.=3523): 102%

CC[C@H](C)[C@@H]([C@@H](CC(=O)N1CCC[C@H]1[C@H](OC)[C@@H](C)C(=O)N[C@@H](Cc1ccccc1)C(=O)O)OC)N(C)C(=O)[C@@H](NC(=O)[C@H](C(C)C)N(C)C)C(C)C [Auristatin F] (NMe2Val-V[Dil][Dolaproine]F-OH)
remaining activity at 3.75 µM ([1]; Well no.=8602): 100%
remaining activity at 1.25 µM ([2]; Well no.=8602): 106%

NNc1nncc2ccccc12 [Hydralazine hydrochloride]
remaining activity at 3.75 µM ([1]; Well no.=560): 95.5%
remaining activity at 1.25 µM ([2]; Well no.=560): 95.6%

O=C1O[C@H]([C@@H](O)CO)[C@H](O)[C@@H]1O [L-Gulono-1,4-lactone]
remaining activity at 3.75 µM ([1]; Well no.=6771): 104%
remaining activity at 1.25 µM ([2]; Well no.=6771): 102%

C[N+](C)(C)CCCCCC[N+](C)(C)C [Hexamethonium bromide]
remaining activity at 3.75 µM ([1]; Well no.=702): 100%
remaining activity at 1.25 µM ([2]; Well no.=702): 98.3%

O=C(N[C@H]1CCS[C@H]2CCC[C@@H](C(=O)O)N2C1=O)[C@@H](S)Cc1ccccc1 [Omapatrilat]
remaining activity at 3.75 µM ([1]; Well no.=8466): 95%
remaining activity at 1.25 µM ([2]; Well no.=8466): 99.9%

CN1CCc2nc(C(=O)N[C@@H]3C[C@@H](C(=O)N(C)C)CC[C@@H]3NC(=O)C(=O)Nc3ccc(Cl)cn3)sc2C1 [Edoxaban]
remaining activity at 3.75 µM ([1]; Well no.=8572): 97.7%
remaining activity at 1.25 µM ([2]; Well no.=8572): 99.4%

Cc1cc(SCc2sc(-c3ccc(C(F)(F)F)c(F)c3)nc2C)ccc1OCC(=O)O [GW0742]
remaining activity at 3.75 µM ([1]; Well no.=5214): 98.5%
remaining activity at 1.25 µM ([2]; Well no.=5214): 100%

Cc1scc2c1N(C(=O)CN1CCN(C)CC1)c1ccccc1NC2=O [Telenzepine dihydrochloride]
remaining activity at 3.75 µM ([1]; Well no.=1186): 97.7%
remaining activity at 1.25 µM ([2]; Well no.=1186): 95.7%

CN(C)C(=O)Nc1cccc(-c2ccc(N(C)C)cc2)c1 [Atglistatin]
remaining activity at 3.75 µM ([1]; Well no.=5396): 81.1%
remaining activity at 1.25 µM ([2]; Well no.=5396): 98.8%

Nc1nc2[nH]cnc2c(=S)[nH]1 [Thioguanine]
remaining activity at 3.75 µM ([1]; Well no.=4624): 102%
remaining activity at 1.25 µM ([2]; Well no.=4624): 102%

CCS(=O)(=O)Nc1ccc2c(c1)/C(=C(/Nc1ccc(CN3CCCCC3)cc1)c1ccccc1)C(=O)N2 [Hesperadin]
remaining activity at 3.75 µM ([1]; Well no.=5262): 88.4%
remaining activity at 1.25 µM ([2]; Well no.=5262): 99.1%

COc1ccc([C@]2(O)CC[C@@H](N3CC[C@@H](NC(=O)CNC(=O)c4cccc(C(F)(F)F)c4)C3)CC2)cn1 [INCB 3284]
remaining activity at 3.75 µM ([1]; Well no.=8271): 99.4%
remaining activity at 1.25 µM ([2]; Well no.=8271): 102%

CNCCNS(=O)(=O)c1cccc2cnccc12 [H-8, Dihydrochloride]
remaining activity at 3.75 µM ([1]; Well no.=2431): 105%
remaining activity at 1.25 µM ([2]; Well no.=2431): 106%

CC[C@H](C)/C=C(C)/C=C/C1=CC2=C(Cl)C(=O)[C@](C)(OC(C)=O)C(=O)C2=CO1 [Sclerotiorin]
remaining activity at 3.75 µM ([1]; Well no.=3604): 98.6%
remaining activity at 1.25 µM ([2]; Well no.=3604): 100%

CCCNC(C)C(=O)Nc1ccccc1C (stereo not shown) [Prilocaine]
remaining activity at 3.75 µM ([1]; Well no.=4616): 93.7%
remaining activity at 1.25 µM ([2]; Well no.=4616): 100%

CN1[C@@H]2CC(O)C[C@H]1[C@@H]1O[C@@H]12 (stereo partly shown) [Scopine]
remaining activity at 3.75 µM ([1]; Well no.=4910): 92.3%
remaining activity at 1.25 µM ([2]; Well no.=4910): 95.8%

Cc1cccc([C@H](C)c2c[nH]cn2)c1C [Dexmedetomidine]
remaining activity at 3.75 µM ([1]; Well no.=5319): 95.8%
remaining activity at 1.25 µM ([2]; Well no.=5319): 94.4%

CC[C@H](NC(=O)c1c(O)c(-c2ccccc2)nc2ccccc12)c1ccccc1 [Talnetant]
remaining activity at 3.75 µM ([1]; Well no.=5814): 97.8%
remaining activity at 3.75 µM ([1]; Well no.=8479): 100%
remaining activity at 1.25 µM ([2]; Well no.=5814): 97.3%
remaining activity at 1.25 µM ([2]; Well no.=8479): 104%

CC1=C(C)C(=O)C(C(CCCCCC(=O)O)c2ccccc2)=C(C)C1=O (stereo not shown) [Seratrodast]
remaining activity at 3.75 µM ([1]; Well no.=3857): 102%
remaining activity at 3.75 µM ([1]; Well no.=7375): 103%
remaining activity at 1.25 µM ([2]; Well no.=3857): 98.1%
remaining activity at 1.25 µM ([2]; Well no.=7375): 103%

CN1CCN(C2=Nc3cc(Cl)ccc3Nc3ccccc32)CC1 [Clozapine]
remaining activity at 3.75 µM ([1]; Well no.=182): 96.2%
remaining activity at 3.75 µM ([1]; Well no.=1813): 95.3%
remaining activity at 3.75 µM ([1]; Well no.=6569): 97.3%
remaining activity at 1.25 µM ([2]; Well no.=182): 99.6%
remaining activity at 1.25 µM ([2]; Well no.=1813): 98.4%
remaining activity at 1.25 µM ([2]; Well no.=6569): 98.5%
